Laboratory results: publication PMC11881906, “Development of xanthone derivatives as effective broad-spectrum antimicrobials: Disrupting cell wall and inhibiting DNA synthesis” (Science Advances, 2025)
Like-named read-outs stand apart in the source and are kept apart here.

Tests used:
[1] = system: S. aureus ATCC 29213; assay: Serial passage resistance induction; format: cell-based, Staphylococcus aureus; settings: 20-day passages at 0.5× MIC
Protocol: (§1) The bacteria were grown in a medium containing 0.5× MIC of each compound to prepare the bacterial suspension for the next MIC determination. The MICs were then recorded after incubation at 37°C for 24 hours. Daily passages were continued until the initial MIC increased by more than fourfold. The stability of acquired resistance was investigated by MIC determination and repeated for 20 days.

[2] = system: S. aureus ATCC 29213; assay: DiSC3(5) membrane depolarization assay; format: cell-based, Staphylococcus aureus; settings: 1× to 8× MIC
Protocol: The DiSC3(5) assay was carried out to investigate the cytoplasmic membrane depolarization. Mid-log phase bacteria culture was centrifuged and resuspended in sterile Hepes buffer [5 mM (pH 7.4)] to adjust the concentration of bacterial cells to obtain OD600 of 0.1. The bacterial suspension was then incubated with 2 μM DiSC3(5) for 1 hour without being exposed to the light. The change in fluorescence intensity was monitored by a BioTek multidetector microplate reader with an excitation wavelength of 622 nm and an emission wavelength of 670 nm. […] All measurements were repeated three times with duplicates each time.

[3] = Plasma pharmacokinetic study; format: in vivo, CD-1 mice; settings: for Mean plasma concentration: LLOQ=10 ng/mL; for bioavailability: dose-normalised AUCINF, read-out: bioavailability (F)
Protocol: Mouse plasma PK studies were performed at Shanghai Ruizhi Chemical Research Co. Ltd. All experiments related to animals were conducted in compliance with the ethical guidelines approved by the Institutional Animal Care and Use Committee (IACUC) of the Shanghai Ruizhi Chemical Research Co. Ltd. Male CD-1 mice (6 to 8 weeks) were treated with the corresponding dose of drugs formulated in 5% glucose solution (D5W) delivered via intravenous injection via tail vein, intraperitoneal injection, or subcutaneous injection. Following administration, approximately 110 μl of blood was taken via facial vein […] at 0.083, 0.25, 0.5, 1, 2, 4, 8, and 24 hours into K2EDTA tubes. Blood samples were placed on ice and centrifuged to obtain plasma samples (2000g, 5 min under 4°C). Plasma samples were stored at approximately −70°C until analysis. The XT17 concentration in plasma PK studies was measured by liquid chromatography–tandem mass spectrometry (LC-MS/MS) assay using an LC-MS/MS-22 (Triple Quad 6500) instrument. Plasma concentrations versus time data and PK parameters were estimated from noncompartmental analysis using WinNonlin 8.2.

[4] = system: S. aureus ATCC 29213; assay: Time-kill kinetic assay; format: cell-based, Staphylococcus aureus; settings: 10× MIC, 24 hours
Protocol: The bacterial cultures were standardized to obtain an initial density that ranged from 10^5 to 10^6 cells/ml. The cultures were incubated in a shaking bath at 37°C. Viable counts were determined at 0-, 0.5-, 1.0-, 2.0-, 4.0-, 8.0-, and 24-hour intervals by spotting 10-μl aliquots of serially 10-fold diluted cultures onto Mueller-Hinton agar (MHA) plates. […] All measurements were repeated three times with duplicates each time.

[5] = system: E. coli ATCC 25922; assay: SYTOX Green uptake assay; format: cell-based, Escherichia coli; settings: up to 8× MIC
Protocol: The SYTOX Green uptake was measured to explore the inner membrane permeability. The overnight bacteria culture was centrifuged and resuspended in sterile PBS to obtain an OD600 of 0.2. SYTOX Green dye was added to a final concentration of 0.3 μM and incubated for 20 min without being exposed to the light. Fluorescence was measured at excitation and emission wavelengths of 504 and 523 nm, respectively. […] The changes in fluorescence intensity were continuously monitored for 1 hour. All measurements were repeated three times with duplicates each time.

[6] = CCK-8 cytotoxicity assay; format: cell-based
Protocol: (§2) Cytotoxicity of the compound tested was assessed by CCK-8 assays as previously described ([71]). […] Following a 24-hour incubation, 10 μl of CCK-8 reagent was added to each well and incubated for 1 hour. The absorbance at 450 nm was measured by a microplate reader. All measurements were repeated three times with duplicates each time.

[7] = In vitro cytotoxicity (CC50); format: cell-based; settings: human, mouse, HepG2 cells and mouse fibroblast NCTC clone 929 cells; mammalian cells, CCK-8; read-out: concentration of cytotoxicity 50% (CC50)
Protocol: as §2

[8] = system: P. aeruginosa ATCC 9027; assay: Serial passage resistance induction; format: cell-based, Pseudomonas aeruginosa; settings: 20-day passages at 0.5× MIC
Protocol: as §1

[9] = male, CD-1, mouse, plasma, ip, 20 mg/kg, ip 20 mg/kg
[10] = male, CD-1, mouse, plasma, iv, 5 mg/kg, IV 5 mg/kg
[11] = male, CD-1, mouse, plasma, sc, 40 mg/kg, sc 40 mg/kg
[12] = male, CD-1, mouse, plasma, IP 20 mg/kg
[13] = male, CD-1, mouse, plasma, IV 5 mg/kg
[14] = male, CD-1, mouse, plasma, SC 40 mg/kg
[15] = human, HepG2 cells, read-out: Viable cells (%) HepG2 cells
[16] = mouse, NCTC clone 929 fibroblast cells, read-out: %Viable cells NCTC clone 929 cells

In the case of CC(C)=CCOc1cc(OCCCNC(=N)N)cc2oc3cc(OCCCNC(=N)N)ccc3c(=O)c12 [XT17], the “increase in MIC values during passages” value [1] is reported as “no more than fourfold increase”, the “DiSC3(5) fluorescence intensity (membrane depolarization)” value [2] is reported as “no changes in fluorescence intensity” and the MRTIast ([3]; IP 20 mg/kg) is reported as 1.08 h. The Mean plasma concentration ([3]; IP 20 mg/kg, 24 hr) was “BQL”, the Mean plasma concentration ([3]; IV 5 mg/kg, 8 hr) was “BQL” and the Mean plasma concentration ([3]; IV 5 mg/kg, 24 hr) was “BQL”. For the same compound, the MRTIast ([3]; SC 40 mg/kg) was 5.54 h, the “time blood concentrations maintained above MICs” value ([3]; iv single dose 5 mg/kg) was “more than 4 hours” and the bioavailability ([3]; male, CD-1, mouse, plasma, intraperitoneal, ip 20 mg/kg vs iv 5 mg/kg) was 69.7%. For the same compound, the Cmax ([3]; male, CD-1, mouse, plasma, ip, 20 mg/kg, IP 20 mg/kg) was 18400 ng/mL, the Cmax [3, 9] was 18400 ng/mL and the half-life [3, 9] was 1.02 h. For the same compound, the clearance [3, 10] was 9.68 mL/min/kg, the half-life [3, 10] was 0.478 h and the half-life ([3]; male, CD-1, mouse, plasma, iv, 5 mg/kg, iv 5 mg/kg) was 0.48 h. The Cmax ([3]; male, CD-1, mouse, plasma, iv, 5 mg/kg, iv 5 mg/kg, for bolus iv Cmax = C0) was 20300 ng/mL, the Cmax ([3]; male, CD-1, mouse, plasma, sc, 40 mg/kg, SC 40 mg/kg) was 8680 ng/mL and the Cmax [3, 11] was 8680 ng/mL. For the same compound, the half-life [3, 11] was 4.68 h, the bioavailability ([3]; male, CD-1, mouse, plasma, subcutaneous, sc 40 mg/kg vs iv 5 mg/kg) was 87.3% and the AUC(0-inf) [3, 12] was 24000 ng·h/mL. For the same compound, the AUC(0-t) [3, 12] was 23900 ng·h/mL, the MRT inf [3, 12] was 1.13 h and the Tmax [3, 12] was 0.25 h. The concentration at 0.083 h [3, 12] was 17500 ng/mL, the concentration at 0.25 h [3, 12] was 18400 ng/mL and the concentration at 0.5 h [3, 12] was 14100 ng/mL. It also gave a concentration at 1 h [3, 12] of 9190 ng/mL, a concentration at 2 h [3, 12] of 2770 ng/mL and a concentration at 4 h [3, 12] of 452 ng/mL. It also gave a concentration at 8 h ([3]; male, CD-1, mouse, plasma, IP 20 mg/kg, 8 hr) of 90.1 ng/mL, an AUC(0-inf) [3, 13] of 8610 ng·h/mL and an AUC(0-t) [3, 13] of 8590 ng·h/mL. It also gave an MRT inf [3, 13] of 0.42 h, an MRT last [3, 13] of 0.412 h and a concentration at 0.083 h [3, 13] of 20300 ng/mL. It also gave a concentration at 0.25 h [3, 13] of 7360 ng/mL, a concentration at 0.5 h [3, 13] of 3630 ng/mL and a concentration at 1 h [3, 13] of 1770 ng/mL. For the same compound, the concentration at 2 h [3, 13] was 282 ng/mL, the concentration at 4 h [3, 13] was 23.3 ng/mL and the Vd ([3]; male, CD-1, mouse, plasma, IV 5 mg/kg, read-out: Vss) was 0.244 L/kg. For the same compound, the AUC(0-inf) [3, 14] was 60100 ng·h/mL, the AUC(0-t) [3, 14] was 58800 ng·h/mL and the MRT inf [3, 14] was 6.07 h. It also gave a Tmax [3, 14] of 1 h, a concentration at 0.083 h [3, 14] of 7730 ng/mL and a concentration at 0.25 h [3, 14] of 6690 ng/mL. The concentration at 0.5 h [3, 14] was 7340 ng/mL, the concentration at 1 h [3, 14] was 8680 ng/mL and the concentration at 2 h [3, 14] was 4620 ng/mL. It also gave a concentration at 4 h [3, 14] of 3560 ng/mL, a concentration at 8 h ([3]; male, CD-1, mouse, plasma, SC 40 mg/kg, 8 hr) of 2810 ng/mL and a concentration at 24 h ([3]; male, CD-1, mouse, plasma, SC 40 mg/kg, 24 hr) of 188 ng/mL. For the same compound, the “time blood concentrations maintained above MICs” value ([3]; sc single dose 40 mg/kg) was “more than 8 hours”, the “log decrease in bacterial load” value [4] was 5.16 log and the “SYTOX Green fluorescence intensity (cytoplasmic membrane permeabilization)” value [5] was “did not show a notable increase”. For the same compound, the viability at 24 h, 3.125 μg/ml [6, 15] was 105%, the viability at 24 h, 6.25 μg/ml [6, 15] was 110% and the viability at 24 h, 12.5 μg/ml [6, 15] was 104%. It also gave a viability at 24 h, 25 μg/ml [6, 15] of 83.9%, a viability at 24 h, 50 μg/ml [6, 15] of 62.2 ± 8.01% and a viability at 24 h, 100 μg/ml [6, 15] of 40.6%. It also gave a viability at 24 h, 3.125 μg/ml [6, 16] of 90%, a viability at 24 h, 6.25 μg/ml [6, 16] of 87.9% and a viability at 24 h, 12.5 μg/ml [6, 16] of 87.7%. For the same compound, the viability at 24 h, 25 μg/ml [6, 16] was 78.9 ± 3.46%, the viability at 24 h, 50 μg/ml [6, 16] was 51.6 ± 2.46% and the viability at 24 h, 100 μg/ml [6, 16] was 8.16%. The CC50 at 24 h [7] was over 50 µg/mL and the “increase in MIC values during passages” value [8] was “no more than fourfold increase”.
